Test results reported in the supplement of paper PMC10307832.

Tests used:
Experiment in all cases: relative viability (nuclei count vs DMSO), 5 days (fraction); higher = more cells survive
Afatinib + Tozasertib = compound: CN(C)C/C=C/C(=O)Nc1cc2c(Nc3ccc(F)c(Cl)c3)ncnc2cc1O[C@H]1CCOC1 [Afatinib] + Cc1cc(Nc2cc(N3CCN(C)CC3)nc(Sc3ccc(NC(=O)C4CC4)cc3)n2)n[nH]1 [Tozasertib] (partner 0.1 µM)
Method in brief: (§1)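 Nuclei were stained with Hoechst during a one-step fixation (final 0.05% Triton X-100, 1% formaldehyde, 1 ug/ml Hoechst) carried out 5 days after dosing, then counted on 4× images. The cells, lung cancer lines in 1536-well plates, had been dosed by pin tool the day after seeding with one drug alone or a fixed anchor-drug dose plus five library-drug doses (not always all listed) in √10 steps. Relative viability is the nuclei count in treated wells divided by that in vehicle wells, and each value is the median of duplicate plates.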

Afatinib + Dasatinib = compound: CN(C)C/C=C/C(=O)Nc1cc2c(Nc3ccc(F)c(Cl)c3)ncnc2cc1O[C@H]1CCOC1 [Afatinib] + Cc1nc(Nc2ncc(C(=O)Nc3c(C)cccc3Cl)s2)cc(N2CCN(CCO)CC2)n1 [Dasatinib] (partner 0.075 µM)
Method in brief: as §1

Afatinib + Luminespib = compound: CN(C)C/C=C/C(=O)Nc1cc2c(Nc3ccc(F)c(Cl)c3)ncnc2cc1O[C@H]1CCOC1 [Afatinib] + CCNC(=O)c1noc(-c2cc(C(C)C)c(O)cc2O)c1-c1ccc(CN2CCOCC2)cc1 [Luminespib] (partner 0.01 µM)
Method in brief: as §1

Afatinib + Phenformin = compound: CN(C)C/C=C/C(=O)Nc1cc2c(Nc3ccc(F)c(Cl)c3)ncnc2cc1O[C@H]1CCOC1 [Afatinib] + N=C(N)NC(=N)NCCc1ccccc1 [Phenformin] (partner 250 µM)
Method in brief: as §1

Afatinib + OSI-027 = compound: CN(C)C/C=C/C(=O)Nc1cc2c(Nc3ccc(F)c(Cl)c3)ncnc2cc1O[C@H]1CCOC1 [Afatinib] + COc1cccc2cc(-c3nc([C@H]4CC[C@H](C(=O)O)CC4)n4ncnc(N)c34)[nH]c12 [OSI-027] (partner 0.5 µM)
Method in brief: as §1

Afatinib + Foretinib = compound: CN(C)C/C=C/C(=O)Nc1cc2c(Nc3ccc(F)c(Cl)c3)ncnc2cc1O[C@H]1CCOC1 [Afatinib] + COc1cc2c(Oc3ccc(NC(=O)C4(C(=O)Nc5ccc(F)cc5)CC4)cc3F)ccnc2cc1OCCCN1CCOCC1 [Foretinib] (partner 0.25 µM)
Method in brief: as §1

Afatinib = compound: CN(C)C/C=C/C(=O)Nc1cc2c(Nc3ccc(F)c(Cl)c3)ncnc2cc1O[C@H]1CCOC1 [Afatinib]
Method in brief: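 A plate was accepted only when its control CV was below 25% and the cells had doubled at least once. Viability is defined from nuclear counts as treated wells divided by vehicle wells, with the median taken across plates. That median covers lung cancer cell lines grown in 1536-well plates, dosed by pinning at five √10-spaced library-drug concentrations, and counted in MetaXpress from 4× Hoechst images after 5 days.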

Afatinib + Vorinostat = compound: CN(C)C/C=C/C(=O)Nc1cc2c(Nc3ccc(F)c(Cl)c3)ncnc2cc1O[C@H]1CCOC1 [Afatinib] + O=C(CCCCCCC(=O)Nc1ccccc1)NO [Vorinostat] (partner 1 µM)
Method in brief: as §1

Afatinib + Pemetrexed = compound: CN(C)C/C=C/C(=O)Nc1cc2c(Nc3ccc(F)c(Cl)c3)ncnc2cc1O[C@H]1CCOC1 [Afatinib] + Nc1nc2[nH]cc(CCc3ccc(C(=O)N[C@@H](CCC(=O)O)C(=O)O)cc3)c2c(=O)[nH]1 [Pemetrexed] (partner 0.2 µM)
Method in brief: as §1

Afatinib + AZD7762 = compound: CN(C)C/C=C/C(=O)Nc1cc2c(Nc3ccc(F)c(Cl)c3)ncnc2cc1O[C@H]1CCOC1 [Afatinib] + NC(=O)Nc1cc(-c2cccc(F)c2)sc1C(=O)N[C@H]1CCCNC1 [AZD7762] (partner 0.2 µM)
Method in brief: as §1

Afatinib + Trametinib = compound: CN(C)C/C=C/C(=O)Nc1cc2c(Nc3ccc(F)c(Cl)c3)ncnc2cc1O[C@H]1CCOC1 [Afatinib] + CC(=O)Nc1cccc(-n2c(=O)n(C3CC3)c(=O)c3c(Nc4ccc(I)cc4F)n(C)c(=O)c(C)c32)c1 [Trametinib] (partner 0.02 µM)
Method in brief: as §1

Afatinib + Decitabine = compound: CN(C)C/C=C/C(=O)Nc1cc2c(Nc3ccc(F)c(Cl)c3)ncnc2cc1O[C@H]1CCOC1 [Afatinib] + Nc1ncn([C@H]2C[C@H](O)[C@@H](CO)O2)c(=O)n1 [Decitabine] (partner 2 µM)
Method in brief: as §1

Afatinib + Olaparib = compound: CN(C)C/C=C/C(=O)Nc1cc2c(Nc3ccc(F)c(Cl)c3)ncnc2cc1O[C@H]1CCOC1 [Afatinib] + O=C(c1cc(Cc2n[nH]c(=O)c3ccccc23)ccc1F)N1CCN(C(=O)C2CC2)CC1 [Olaparib] (partner 8 µM)
Method in brief: as §1

Afatinib + Palbociclib = compound: CN(C)C/C=C/C(=O)Nc1cc2c(Nc3ccc(F)c(Cl)c3)ncnc2cc1O[C@H]1CCOC1 [Afatinib] + CC(=O)c1c(C)c2cnc(Nc3ccc(N4CCNCC4)cn3)nc2n(C2CCCC2)c1=O [Palbociclib] (partner 0.5 µM)
Method in brief: as §1

NCI-H1623 was tested, and the relative viability (Afatinib + Tozasertib; first compound 0.005 µM) was 0.397, the relative viability (Afatinib + Tozasertib; first compound 0.01581 µM) was 0.346 and the relative viability (Afatinib + Tozasertib; first compound 0.05 µM) was 0.285. The relative viability (Afatinib + Tozasertib; first compound 0.1581 µM) was 0.121, the relative viability (Afatinib + Tozasertib; first compound 0.5 µM) was 0.148 and the relative viability (Afatinib + Dasatinib; first compound 0.005 µM) was 0.446. It also gave a relative viability (Afatinib + Dasatinib; first compound 0.01581 µM) of 0.472, a relative viability (Afatinib + Dasatinib; first compound 0.05 µM) of 0.375 and a relative viability (Afatinib + Dasatinib; first compound 0.1581 µM) of 0.198. For the same cell line, the relative viability (Afatinib + Dasatinib; first compound 0.5 µM) was 0.226, the relative viability (Afatinib + Luminespib; first compound 0.005 µM) was 0.489 and the relative viability (Afatinib + Luminespib; first compound 0.01581 µM) was 0.454. The relative viability (Afatinib + Luminespib; first compound 0.05 µM) was 0.325, the relative viability (Afatinib + Luminespib; first compound 0.1581 µM) was 0.214 and the relative viability (Afatinib + Luminespib; first compound 0.5 µM) was 0.281. The relative viability (Afatinib + Phenformin; first compound 0.005 µM) was 0.548, the relative viability (Afatinib + Phenformin; first compound 0.01581 µM) was 0.499 and the relative viability (Afatinib + Phenformin; first compound 0.05 µM) was 0.36. The relative viability (Afatinib + Phenformin; first compound 0.1581 µM) was 0.16, the relative viability (Afatinib + Phenformin; first compound 0.5 µM) was 0.431 and the relative viability (Afatinib + OSI-027; first compound 0.005 µM) was 0.394. It also gave a relative viability (Afatinib + OSI-027; first compound 0.01581 µM) of 0.324, a relative viability (Afatinib + OSI-027; first compound 0.05 µM) of 0.255 and a relative viability (Afatinib + OSI-027; first compound 0.1581 µM) of 0.189. For the same cell line, the relative viability (Afatinib + OSI-027; first compound 0.5 µM) was 0.243, the relative viability (Afatinib + Foretinib; first compound 0.005 µM) was 0.694 and the relative viability (Afatinib + Foretinib; first compound 0.01581 µM) was 0.597. It also gave a relative viability (Afatinib + Foretinib; first compound 0.05 µM) of 0.414, a relative viability (Afatinib + Foretinib; first compound 0.1581 µM) of 0.213 and a relative viability (Afatinib; 0.005 µM) of 0.822. The relative viability (Afatinib; 0.01581 µM) was 0.813, the relative viability (Afatinib; 0.05 µM) was 0.42 and the relative viability (Afatinib; 0.1581 µM) was 0.221. The relative viability (Afatinib; 0.5 µM) was 0.267.
Cell Line NCI-H2342 has a relative viability (Afatinib + Vorinostat; first compound 0.005 µM) of 0.706, a relative viability (Afatinib + Vorinostat; first compound 0.01581 µM) of 0.628 and a relative viability (Afatinib + Vorinostat; first compound 0.05 µM) of 0.729. The relative viability (Afatinib + Vorinostat; first compound 0.1581 µM) was 0.695, the relative viability (Afatinib + Vorinostat; first compound 0.5 µM) was 0.696 and the relative viability (Afatinib + Tozasertib; first compound 0.005 µM) was 0.464. For the same cell line, the relative viability (Afatinib + Tozasertib; first compound 0.01581 µM) was 0.545, the relative viability (Afatinib + Tozasertib; first compound 0.05 µM) was 0.472 and the relative viability (Afatinib + Tozasertib; first compound 0.1581 µM) was 0.421. The relative viability (Afatinib + Tozasertib; first compound 0.5 µM) was 0.393, the relative viability (Afatinib + Pemetrexed; first compound 0.005 µM) was 0.763 and the relative viability (Afatinib + Pemetrexed; first compound 0.01581 µM) was 0.762. For the same cell line, the relative viability (Afatinib + Pemetrexed; first compound 0.05 µM) was 0.706, the relative viability (Afatinib + Pemetrexed; first compound 0.1581 µM) was 0.777 and the relative viability (Afatinib + Pemetrexed; first compound 0.5 µM) was 0.747. The relative viability (Afatinib + AZD7762; first compound 0.005 µM) was 0.562, the relative viability (Afatinib + AZD7762; first compound 0.01581 µM) was 0.488 and the relative viability (Afatinib + AZD7762; first compound 0.05 µM) was 0.477. The relative viability (Afatinib + AZD7762; first compound 0.1581 µM) was 0.434, the relative viability (Afatinib + AZD7762; first compound 0.5 µM) was 0.474 and the relative viability (Afatinib + Trametinib; first compound 0.005 µM) was 0.761. It also gave a relative viability (Afatinib + Trametinib; first compound 0.01581 µM) of 0.723, a relative viability (Afatinib + Trametinib; first compound 0.05 µM) of 0.726 and a relative viability (Afatinib + Trametinib; first compound 0.1581 µM) of 0.74. It also gave a relative viability (Afatinib + Trametinib; first compound 0.5 µM) of 0.672, a relative viability (Afatinib + Decitabine; first compound 0.005 µM) of 0.706 and a relative viability (Afatinib + Decitabine; first compound 0.01581 µM) of 0.698. It also gave a relative viability (Afatinib + Decitabine; first compound 0.05 µM) of 0.718, a relative viability (Afatinib + Decitabine; first compound 0.1581 µM) of 0.569 and a relative viability (Afatinib + Decitabine; first compound 0.5 µM) of 0.573. For the same cell line, the relative viability (Afatinib + Dasatinib; first compound 0.005 µM) was 0.315, the relative viability (Afatinib + Dasatinib; first compound 0.01581 µM) was 0.281 and the relative viability (Afatinib + Dasatinib; first compound 0.05 µM) was 0.295. It also gave a relative viability (Afatinib + Dasatinib; first compound 0.1581 µM) of 0.305, a relative viability (Afatinib + Dasatinib; first compound 0.5 µM) of 0.297 and a relative viability (Afatinib + Luminespib; first compound 0.005 µM) of 0.713. The relative viability (Afatinib + Luminespib; first compound 0.01581 µM) was 0.648, the relative viability (Afatinib + Luminespib; first compound 0.05 µM) was 0.699 and the relative viability (Afatinib + Luminespib; first compound 0.1581 µM) was 0.627. It also gave a relative viability (Afatinib + Luminespib; first compound 0.5 µM) of 0.583, a relative viability (Afatinib + Phenformin; first compound 0.005 µM) of 0.641 and a relative viability (Afatinib + Phenformin; first compound 0.01581 µM) of 0.488. It also gave a relative viability (Afatinib + Phenformin; first compound 0.05 µM) of 0.575, a relative viability (Afatinib + Phenformin; first compound 0.1581 µM) of 0.519 and a relative viability (Afatinib + Phenformin; first compound 0.5 µM) of 0.477. For the same cell line, the relative viability (Afatinib + Olaparib; first compound 0.005 µM) was 0.375, the relative viability (Afatinib + Olaparib; first compound 0.01581 µM) was 0.457 and the relative viability (Afatinib + Olaparib; first compound 0.05 µM) was 0.411. It also gave a relative viability (Afatinib + Olaparib; first compound 0.1581 µM) of 0.347, a relative viability (Afatinib + Olaparib; first compound 0.5 µM) of 0.406 and a relative viability (Afatinib + OSI-027; first compound 0.005 µM) of 0.669. It also gave a relative viability (Afatinib + OSI-027; first compound 0.01581 µM) of 0.539, a relative viability (Afatinib + OSI-027; first compound 0.05 µM) of 0.546 and a relative viability (Afatinib + OSI-027; first compound 0.1581 µM) of 0.558. For the same cell line, the relative viability (Afatinib + OSI-027; first compound 0.5 µM) was 0.485, the relative viability (Afatinib + Palbociclib; first compound 0.005 µM) was 0.528 and the relative viability (Afatinib + Palbociclib; first compound 0.01581 µM) was 0.497. It also gave a relative viability (Afatinib + Palbociclib; first compound 0.05 µM) of 0.473, a relative viability (Afatinib + Palbociclib; first compound 0.1581 µM) of 0.424 and a relative viability (Afatinib + Palbociclib; first compound 0.5 µM) of 0.475. For the same cell line, the relative viability (Afatinib + Foretinib; first compound 0.005 µM) was 0.892, the relative viability (Afatinib + Foretinib; first compound 0.01581 µM) was 0.895 and the relative viability (Afatinib + Foretinib; first compound 0.05 µM) was 0.856. It also gave a relative viability (Afatinib + Foretinib; first compound 0.1581 µM) of 0.743, a relative viability (Afatinib + Foretinib; first compound 0.5 µM) of 0.774 and a relative viability (Afatinib; 0.005 µM) of 0.896. It also gave a relative viability (Afatinib; 0.01581 µM) of 0.936, a relative viability (Afatinib; 0.05 µM) of 0.889 and a relative viability (Afatinib; 0.1581 µM) of 0.826. For the same cell line, the relative viability (Afatinib; 0.5 µM) was 0.726.
